These are literature values, as cited in patent publication US20250017894A1, “Formulation for Nasal Delivery of Cannabinoids” (priority 2019, published 2025).

Each structure is given as a SMILES string.

Take `C=C(C)[C@@H]1CCC(C)=C[C@H]1c1c(O)cc(CCCCC)cc1O` [CBD, Cannabidiol]: the “bioavailability, inhalation using vaporized CBD” value (inhalation of vaporized CBD) is recorded as 26-36%. Further, the “bioavailability for intranasal administration” value (intranasal administration) is recorded as 34-46%. The oral bioavailability (oral administration) was 6-15%. In addition, under “sublingual administration”, the “bioavailability, sublingual administration” value is recorded as 20-35%.
